Columns and labels:
Assay type in all cases: in vivo
Scirpus juncoides [1] = assay: Test Example 11: herbicidal effect test by soil treatment in paddy field; details: 120 g/10a active ingredient, 14 days after treatment
How it was run: (§1)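 Dry weight at day 14 relative to untreated controls gives the suppression rate; duplicate pots. Treatment: 120 g a.i./10 are into paddy water at sowing.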

Echinochloa crus-galli [2] = assay: as above; details: 120 g/10a active ingredient, 14 days after treatment
How it was run: as §1

Monochoria vaginalis [3] = assay: as above; details: 120 g/10a active ingredient, 14 days after treatment
How it was run: as §1

Lindernia pyxidaria [4] = assay: as above; details: 120 g/10a active ingredient, 14 days after treatment
How it was run: as §1

Scirpus juncoides [5] = assay: Test Example 12: herbicidal effect test by treatment during growing period in paddy field; details: 120 g/10a; treatment seven days after sowing in flooded paddy pot; assessed 14 days after treatment
How it was run: (§2)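 Weed suppression (%) = (1 − treated/untreated mean dry weight) × 100, scored 14 days after treatment with two replicates per plot. Dose 120 g a.i. per 10 are, as diluted emulsifiable concentrate added dropwise to flooded pots (water about 3 cm) 7 days post-sowing, seeds at 0-1 cm.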

Echinochloa crus-galli [6] = assay: as above; details: 120 g/10a; treatment seven days after sowing in flooded paddy pot; assessed 14 days after treatment
How it was run: as §2

Monochoria vaginalis [7] = assay: as above; details: 120 g/10a; treatment seven days after sowing in flooded paddy pot; assessed 14 days after treatment
How it was run: as §2

Lindernia pyxidaria [8] = assay: as above; details: 120 g/10a; treatment seven days after sowing in flooded paddy pot; assessed 14 days after treatment
How it was run: as §2

SMILES: Cc1cc(N(C(=O)n2cnn(S(=O)(=O)C(C)C)c2=O)C(C)C)no1 [Compound 11-91]
- Weed suppression rate (%) Scirpus juncoides (Scirpus juncoides [1]): 90%
- Weed suppression rate (%) Echinochloa crus-galli (Echinochloa crus-galli [2]): 90%
- Weed suppression rate (%) Monochoria vaginalis (Monochoria vaginalis [3]): 80%
- Weed suppression rate (%) Lindemia pyxidaria (Lindernia pyxidaria [4]): 80%
- Weed suppression rate (%) Scirpus juncoides (Scirpus juncoides [5]): 90%
- Weed suppression rate (%) Echinochloa crus-galli (Echinochloa crus-galli [6]): 90%
- Weed suppression rate (%) Monochoria vaginalis (Monochoria vaginalis [7]): 80%
- Weed suppression rate (%) Lindemia pyxidaria (Lindernia pyxidaria [8]): 80%

SMILES: CC(C)N(C(=O)n1cnn(S(=O)(=O)c2ccc(F)cc2)c1=O)c1c(F)cc(F)cc1F [Compound 11-479]
- Weed suppression rate (%) Scirpus juncoides (Scirpus juncoides [1]): 100%
- Weed suppression rate (%) Echinochloa crus-galli (Echinochloa crus-galli [2]): 100%
- Weed suppression rate (%) Monochoria vaginalis (Monochoria vaginalis [3]): 80%
- Weed suppression rate (%) Lindemia pyxidaria (Lindernia pyxidaria [4]): 100%
- Weed suppression rate (%) Scirpus juncoides (Scirpus juncoides [5]): 80%
- Weed suppression rate (%) Echinochloa crus-galli (Echinochloa crus-galli [6]): 100%
- Weed suppression rate (%) Monochoria vaginalis (Monochoria vaginalis [7]): 80%
- Weed suppression rate (%) Lindemia pyxidaria (Lindernia pyxidaria [8]): 70%

SMILES: CC(C)N(C(=O)n1cnn(S(C)(=O)=O)c1=O)c1ccccc1F [Compound 11-2]
- Weed suppression rate (%) Scirpus juncoides (Scirpus juncoides [1]): 90%
- Weed suppression rate (%) Echinochloa crus-galli (Echinochloa crus-galli [2]): 90%
- Weed suppression rate (%) Monochoria vaginalis (Monochoria vaginalis [3]): 80%
- Weed suppression rate (%) Lindemia pyxidaria (Lindernia pyxidaria [4]): 80%
- Weed suppression rate (%) Scirpus juncoides (Scirpus juncoides [5]): 90%
- Weed suppression rate (%) Echinochloa crus-galli (Echinochloa crus-galli [6]): 90%
- Weed suppression rate (%) Monochoria vaginalis (Monochoria vaginalis [7]): 80%
- Weed suppression rate (%) Lindemia pyxidaria (Lindernia pyxidaria [8]): 90%

SMILES: CC(C)N(C(=O)n1cnn(S(=O)(=O)c2ccc(C(C)(C)C)cc2)c1=O)c1ccc(F)cc1Cl [Compound 11-689]
- Weed suppression rate (%) Scirpus juncoides (Scirpus juncoides [1]): 70%
- Weed suppression rate (%) Echinochloa crus-galli (Echinochloa crus-galli [2]): 90%
- Weed suppression rate (%) Monochoria vaginalis (Monochoria vaginalis [3]): 70%
- Weed suppression rate (%) Lindemia pyxidaria (Lindernia pyxidaria [4]): 90%
- Weed suppression rate (%) Scirpus juncoides (Scirpus juncoides [5]): 90%
- Weed suppression rate (%) Echinochloa crus-galli (Echinochloa crus-galli [6]): 60%
- Weed suppression rate (%) Monochoria vaginalis (Monochoria vaginalis [7]): 80%
- Weed suppression rate (%) Lindemia pyxidaria (Lindernia pyxidaria [8]): 70%

SMILES: CC(C)N(C(=O)n1cnn(S(=O)(=O)c2ccccc2Cl)c1=O)c1ccc(F)c(F)c1F [Compound 11-515]
- Weed suppression rate (%) Scirpus juncoides (Scirpus juncoides [1]): 100%
- Weed suppression rate (%) Echinochloa crus-galli (Echinochloa crus-galli [2]): 100%
- Weed suppression rate (%) Monochoria vaginalis (Monochoria vaginalis [3]): 80%
- Weed suppression rate (%) Lindemia pyxidaria (Lindernia pyxidaria [4]): 90%
- Weed suppression rate (%) Scirpus juncoides (Scirpus juncoides [5]): 100%
- Weed suppression rate (%) Echinochloa crus-galli (Echinochloa crus-galli [6]): 100%
- Weed suppression rate (%) Monochoria vaginalis (Monochoria vaginalis [7]): 100%
- Weed suppression rate (%) Lindemia pyxidaria (Lindernia pyxidaria [8]): 70%

SMILES: CC(C)N(C(=O)n1cnn(S(=O)(=O)c2ccccc2F)c1=O)c1cccc(F)c1F [Compound 11-401]
- Weed suppression rate (%) Scirpus juncoides (Scirpus juncoides [1]): 90%
- Weed suppression rate (%) Echinochloa crus-galli (Echinochloa crus-galli [2]): 100%
- Weed suppression rate (%) Monochoria vaginalis (Monochoria vaginalis [3]): 100%
- Weed suppression rate (%) Lindemia pyxidaria (Lindernia pyxidaria [4]): 100%
- Weed suppression rate (%) Scirpus juncoides (Scirpus juncoides [5]): 100%
- Weed suppression rate (%) Echinochloa crus-galli (Echinochloa crus-galli [6]): 100%
- Weed suppression rate (%) Monochoria vaginalis (Monochoria vaginalis [7]): 100%
- Weed suppression rate (%) Lindemia pyxidaria (Lindernia pyxidaria [8]): 80%

SMILES: COc1ccc(S(=O)(=O)n2ncn(C(=O)N(c3c(F)cccc3F)C(C)C)c2=O)cc1 [Compound 11-1151]
- Weed suppression rate (%) Scirpus juncoides (Scirpus juncoides [1]): 80%
- Weed suppression rate (%) Echinochloa crus-galli (Echinochloa crus-galli [2]): 100%
- Weed suppression rate (%) Monochoria vaginalis (Monochoria vaginalis [3]): 70%
- Weed suppression rate (%) Lindemia pyxidaria (Lindernia pyxidaria [4]): 100%
- Weed suppression rate (%) Scirpus juncoides (Scirpus juncoides [5]): 90%
- Weed suppression rate (%) Echinochloa crus-galli (Echinochloa crus-galli [6]): 100%
- Weed suppression rate (%) Monochoria vaginalis (Monochoria vaginalis [7]): 90%
- Weed suppression rate (%) Lindemia pyxidaria (Lindernia pyxidaria [8]): 80%

SMILES: Cc1cc(F)ccc1N(C(=O)n1cnn(S(=O)(=O)c2cccc(Cl)c2)c1=O)C(C)C [Compound 11-563]
- Weed suppression rate (%) Scirpus juncoides (Scirpus juncoides [1]): 100%
- Weed suppression rate (%) Echinochloa crus-galli (Echinochloa crus-galli [2]): 100%
- Weed suppression rate (%) Monochoria vaginalis (Monochoria vaginalis [3]): 90%
- Weed suppression rate (%) Lindemia pyxidaria (Lindernia pyxidaria [4]): 100%
- Weed suppression rate (%) Scirpus juncoides (Scirpus juncoides [5]): 100%
- Weed suppression rate (%) Echinochloa crus-galli (Echinochloa crus-galli [6]): 100%
- Weed suppression rate (%) Monochoria vaginalis (Monochoria vaginalis [7]): 80%
- Weed suppression rate (%) Lindemia pyxidaria (Lindernia pyxidaria [8]): 80%

SMILES: Cc1cc(C)c(S(=O)(=O)n2ncn(C(=O)N(c3cccc(F)c3F)C(C)C)c2=O)c(C)c1 [Compound 11-862]
- Weed suppression rate (%) Scirpus juncoides (Scirpus juncoides [1]): 100%
- Weed suppression rate (%) Echinochloa crus-galli (Echinochloa crus-galli [2]): 100%
- Weed suppression rate (%) Monochoria vaginalis (Monochoria vaginalis [3]): 100%
- Weed suppression rate (%) Lindemia pyxidaria (Lindernia pyxidaria [4]): 100%
- Weed suppression rate (%) Scirpus juncoides (Scirpus juncoides [5]): 100%
- Weed suppression rate (%) Echinochloa crus-galli (Echinochloa crus-galli [6]): 100%
- Weed suppression rate (%) Monochoria vaginalis (Monochoria vaginalis [7]): 100%
- Weed suppression rate (%) Lindemia pyxidaria (Lindernia pyxidaria [8]): 80%

SMILES: CC(C)N(C(=O)n1cnn(S(=O)(=O)c2cccc(F)c2)c1=O)c1cccc(F)c1F [Compound 11-437]
- Weed suppression rate (%) Scirpus juncoides (Scirpus juncoides [1]): 80%
- Weed suppression rate (%) Echinochloa crus-galli (Echinochloa crus-galli [2]): 100%
- Weed suppression rate (%) Monochoria vaginalis (Monochoria vaginalis [3]): 80%
- Weed suppression rate (%) Lindemia pyxidaria (Lindernia pyxidaria [4]): 80%
- Weed suppression rate (%) Scirpus juncoides (Scirpus juncoides [5]): 100%
- Weed suppression rate (%) Echinochloa crus-galli (Echinochloa crus-galli [6]): 100%
- Weed suppression rate (%) Monochoria vaginalis (Monochoria vaginalis [7]): 100%
- Weed suppression rate (%) Lindemia pyxidaria (Lindernia pyxidaria [8]): 100%

SMILES: Cc1ccc(S(=O)(=O)n2ncn(C(=O)N(c3cccc(F)c3F)C(C)C)c2=O)cc1 [Compound 11-636]
- Weed suppression rate (%) Scirpus juncoides (Scirpus juncoides [1]): 90%
- Weed suppression rate (%) Echinochloa crus-galli (Echinochloa crus-galli [2]): 100%
- Weed suppression rate (%) Monochoria vaginalis (Monochoria vaginalis [3]): 100%
- Weed suppression rate (%) Lindemia pyxidaria (Lindernia pyxidaria [4]): 100%
- Weed suppression rate (%) Scirpus juncoides (Scirpus juncoides [5]): 100%
- Weed suppression rate (%) Echinochloa crus-galli (Echinochloa crus-galli [6]): 100%
- Weed suppression rate (%) Monochoria vaginalis (Monochoria vaginalis [7]): 100%
- Weed suppression rate (%) Lindemia pyxidaria (Lindernia pyxidaria [8]): 80%

SMILES: CC(C)N(C(=O)n1cnn(S(=O)(=O)c2ccccc2)c1=O)c1ccc(Cl)cc1 [Compound 11-361]
- Weed suppression rate (%) Scirpus juncoides (Scirpus juncoides [1]): 90%
- Weed suppression rate (%) Echinochloa crus-galli (Echinochloa crus-galli [2]): 90%
- Weed suppression rate (%) Monochoria vaginalis (Monochoria vaginalis [3]): 80%
- Weed suppression rate (%) Lindemia pyxidaria (Lindernia pyxidaria [4]): 80%
- Weed suppression rate (%) Scirpus juncoides (Scirpus juncoides [5]): 90%
- Weed suppression rate (%) Echinochloa crus-galli (Echinochloa crus-galli [6]): 90%
- Weed suppression rate (%) Monochoria vaginalis (Monochoria vaginalis [7]): 80%
- Weed suppression rate (%) Lindemia pyxidaria (Lindernia pyxidaria [8]): 80%

From patent publication US11076595B2, “1-(n,n-disubstituted carbamoyl) 4-(substituted sulfonyl)triazolin-5-one derivative, 4-(n,n-disubstituted carbamoyl) 1-(substituted sulfonyl)triazolin-5-one derivative, and herbicide containing said derivative as active ingredient” (HOKKO CHEMICAL INDUSTRY CO., LTD., priority 2017, dated 2021)
